Reference: patent US20050124554A1, “Spermidine derivatives for the treatment of chronic neurodegenerative diseases” (priority 2002, published 2005)

Assays:
[1] = tested on: acute hippocampal slices (CA1 pyramidal cell layer, Schaffer collateral stimulation); assay: Electrophysiology: evoked field responses / synaptic transmission; parameters: species or system Sprague-Dawley rats
Description: All animal procedures to produce acute hippocampal slices were approved by the Home Office. Male, 250 g, Sprague-Dawley rats were deeply anaesthetised with halothane and decapitated. The brain was quickly removed, and the hippocampi dissected out and then cut into 300 μm thick transverse slices on a vibratome (Leica, Milton Keynes, UK) in cold cutting solution (in mM: 189 sucrose, 2.5 KCl, 26 NaHCO3, 1.2 NaH2PO4, 10 glucose, 5 MgCl2, 0.1 CaCl2) equilibrated with 5% CO2, 95% O2. Slices were transferred to aCSF (in mM: 10 glucose, 125 NaCl, 5 KCl, 26 NaHCO3, 1 MgCl2, 1.25 NaH2PO4, 2 CaCl2, 10 sucrose) at room temperature, bubbled with 5% CO2 and 95% O2, for at least 1 h before use.
Slices were then transferred to a submerged perfusion chamber (2 ml volume) for the electrophysiological recordings and were perfused at 10 ml min^−1 at 25° C. with aCSF equilibrated with 5% CO2 and 95% O2, and allowed to equilibrate for 1 h before manipulations were started. Experimental compounds were applied by bath perfusion. L-Arg3,4 was applied at 300 μM and DNQX was applied at 10 μM final concentration. DNQX was diluted from a 40 mM stock in DMSO (final DMSO of 0.025%). The Schaffer collaterals of CA3 were stimulated at voltages from 0 to 30 V with a constant voltage stimulator (Digitimer, Hertfordshire, UK) via a twisted pair stimulating electrode of polyimide coated stainless steel wire (Plastics One, Roanoke, Va.). Field potential responses were recorded with an Axopatch 200B amplifier (Axon Instruments, Foster City, Calif.) in the fast current clamp mode via a 2M KCl filled glass electrode (2-5 MQ) in the CA1 pyramidal cell layer. Responses were filtered at 2 kHz, digitised at 20 kHz with a Digidata 1320A (Axon Instruments), and stored onto hard disk with Clampex 8.1 software (Axon Instruments) running on a Dell Pentium III PC. Data was analysed in Clampfit 8.1 (Axon Instruments).
Stimulus-response (S/R) curves were generated from stimuli from 0 to 30 V in 2 V increments. Bath perfusion of 300 μM L-Arg3,4 in aCSF was applied for 10 min with a sub-maximal stimulus applied every minute to monitor synaptic transmission. A second S/R curve was generated before the perfusion was switched back to plain aCSF. A sub-maximal stimulus was applied every minute during the 15 min wash period after which a third SIR curve was generated. Perfusion of 10 μM DNQX was then started until the response to the sub-maximal stimulus was completely eliminated which always occurred within 10 min. […] In Clampfit, S/R curves were fit to a sigmoidal function of the form: [formula] where R is the magnitude of the evoked response, Rmax is the maximum response, V50 is the voltage which produces a half maximal response, S is the stimulus voltage, and m is proportional to the slope of the linear region of the sigmoid. Data was compared by one way ANOVA.

[2] = tested on: organotypic hippocampal slice cultures (CA1 pyramidal cell layer); assay: Experimental ischaemia (oxygen glucose deprivation), cell death by PI fluorescence; assay type: cell-based, Wistar rat
Method: Organotypic hippocampal slice cultures were prepared according to established methods (Pringle et al. (1997), Brain Res., 755, 36-46). In brief, Wistar rat pups (8-11 days old) were decapitated and the hippocampus rapidly dissected into ice-cold Gey's balanced salt solution (Gibco Life Technologies, Paisley, UK) supplemented with 4.5 mg ml^−1 glucose. Slices were separated and plated onto Millicell CM culture inserts (4 per well) and maintained at 37° C. and 5% CO2 for 14 days. Maintenance medium consisted of 25% heat-inactivated horse serum, 25% Hank's balanced salt solution (HBSS) and 50% minimum essential medium with added Earle's salts MM, ICN Biomedicals, Basingstoke, UK) supplemented with 1 mM glutamine and 4.5 mg ml^−1 glucose. Medium was changed every 3-4 days.
Experimental ischaemia or oxygen glucose deprivation was performed as described previously (Pringle et al. (1996), Stroke, 27, 2124-2130). Briefly, cultures were transferred to serum-free media (SFM, 75% MEM, 25% HDSS supplemented with 1 mM glutamine and 4.5 mg ml^−1 glucose) containing 5 μg ml^−1 of the fluorescent exclusion dye propidium iodide (PI). Cultures were allowed to equilibrate in SFM for 30 min prior to imaging, with or without L-Arg3,4. PI fluorescence was detected using a Leica inverted microscope as described below. Any cultures in which PI fluorescence was detected at this stage were excluded from further study. Ischaemia was induced by transferring cultures to glucose-free media (MEM with Earl's salts without glucose and supplemented with 1 mM glutamine) saturated with 95% N2 and 5% CO2. Culture plates (without lids) were then sealed into an airtight chamber (Billups-Rothenberg, Del Mar, Calif.) gassed with 95% N2 and 5% CO2 at 10 L min^−1 for 10 min before being sealed and placed at 37° C. for 50 min. At the end of the ischaemia, cultures were returned to normoxic SFM+PI, with or without compound at the indicated concentrations, and placed back in the incubator for 24 h.
Neuronal damage was assessed as described previously (Pringle et al. (1996), Stroke, 27, 2124-2130; Pringle et al. (1997), Brain Res., 755, 36-46). Light transmission images were captured prior to the induction of injury, and PI fluorescence images recorded at the end of the 24 h post-injury recovery period. All images were captured on an inverted Leica DM-IRBE epifluorescence microscope (Milton Keynes, UK) fitted with a 100 W Hg lamp and standard rhodamine optics (excitation 510-560 nm; dichroic mirror […]; emission>590 nm). Images were acquired with a 5×NA 0.12 lens and a cooled Hamamatsu digital camera and digitised at 12 bit resolution for analysis in OpenLab 2.1 (Improvision, Coventry, UK) running on a Macintosh G4/400. The area of the CA1 or CA3 cell layer was determined from the transmission image, and the area of PI fluorescence in that cell layers was measured using the density slice function within OpenLab. Neuronal damage was expressed as a percentage of the area in which PI fluorescence was detected above threshold within a cell layer divided by the total area of that cell layer. Protection was calculated as the difference between the damage for a given well and the average damage in untreated controls divided by the average damage in untreated controls. Groups were compared against corresponding control groups using the two tailed Student's t-test with significance indicated as * for P<0.05, and ** for P<0.01. Data is presented as mean±s.e.mean.

[3] = during bath perfusion of 300 μM, n=6
[4] = 300 μM applied 0 min post-injury
[5] = 300 μM applied 10 min post-injury
[6] = 300 μM applied 60 min post-injury

SMILES: N=C(N)NCCCC(N)C(=O)NCCCNCCCCN [L-Arg3,4, L-arginyl-3,4-spermidine]
- effect on evoked responses ([1]; bath application, L-Arg3,4 300 μM, DNQX 10 μM): had no effect on evoked responses
- Rmax (maximum evoked response, S/R curve fit) [1, 3]: 2.71 ± 1.31 mV
- V50 (voltage producing half maximal response) [1, 3]: 15.98 ± 5.12 V
- m (proportional to slope of sigmoid) [1, 3]: 0.59 ± 0.48
- damage ([2]; 300 nM post-injury, dose study): did not reduce damage
- damage ([2]; 3 μM post-injury, dose study): 19±5%
- protection ([2]; 3 μM post-injury, dose study): 43%
- damage ([2]; 30 μM post-injury, dose study): 11±3%
- protection ([2]; 30 μM post-injury, dose study): 67%
- delay of administration post-ischaemia at which still neuroprotective (therapeutic window) ([2]; 300 μM): up to 60 min
- damage [2, 4]: 23±3%
- protection [2, 4]: 40%
- damage [2, 5]: 15±2%
- protection [2, 5]: 59%
- damage ([2]; 300 μM applied 30 min post-injury): 28±4%
- protection ([2]; 300 μM applied 30 min post-injury, not statistically significant): 26%
- damage [2, 6]: 26±3%
- protection [2, 6]: 30%
- damage ([2]; 300 μM post-injury, dose study): 23±3%
- protection ([2]; 300 μM post-injury, dose study): 32%
- protection ([2]; 300 μM pre-, during, and post-ischaemia (PDP)): 39%
- neurodegeneration (PI area as % of cell layer) ([2]; 300 μM pre-, during, and post-ischaemia (PDP), 1 h ischaemia, 24 h): 23±4%
